In publication PMC11005681, “Growth‐Coupled Evolutionary Pressure Improving Epimerases for D‐Allulose Biosynthesis Using a Biosensor‐Assisted In Vivo Selection Platform” (Advanced Science, 2024):

What was measured:
[1] = target: T1, ADAE (Agrobacterium sp. SUL3 D-allulose 3-epimerase) (Agrobacterium sp. SUL3, UniProt Z9QCC6USU8); assay: X-ray crystal structure of complex; type: binding; details: active site with Mg2+; PDB id not printed in main text
T1 construct: homotetramer; each subunit an (alpha/beta)8 barrel with Mg2+ site
T1 sequence (Z9QCC6USU8 1-284): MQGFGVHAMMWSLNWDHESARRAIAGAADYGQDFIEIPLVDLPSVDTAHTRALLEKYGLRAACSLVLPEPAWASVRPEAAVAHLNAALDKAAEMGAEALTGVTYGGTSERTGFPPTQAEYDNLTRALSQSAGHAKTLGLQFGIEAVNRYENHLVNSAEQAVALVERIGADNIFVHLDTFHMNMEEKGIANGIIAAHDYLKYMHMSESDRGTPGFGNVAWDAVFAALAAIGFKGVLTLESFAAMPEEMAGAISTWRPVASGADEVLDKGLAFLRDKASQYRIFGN

[2] = target: Agrobacterium sp. SUL3 D-allulose 3-epimerase (Agrobacterium sp. SUL3); assay: crystal structure; X-ray crystal structures of ADAE alone and in complex with D-fructose or D-allulose; oligomer seen in the structure

stoichiometry N [2] | Molecule | X-ray crystal structure of complex [1]
– | OCC1(O)OC[C@@H](O)[C@@H](O)[C@@H]1O (stereo partly drawn) [D-fructose] | X-ray crystal structures of ADAE alone and in complex with different ligands, including D‐fructose and D‐allulose
– | O=C(CO)[C@H](O)[C@H](O)[C@H](O)CO [D-allulose] | X-ray crystal structures of ADAE alone and in complex with different ligands, including D‐fructose and D‐allulose
4 | Agrobacterium sp. SUL3 D-allulose 3-epimerase (enzyme) | –
